# Experimental data published in PubChem BioAssay AID1324 (NMMLSC, 2008).
# Active and inactive are the calls of the source. No rule for the calls is given here.
# Molecular target: glutathione S-transferase (GST-GSH binding)
# Test: GST–glutathione interaction disruption – biochemical, multiplex beads, flow cytometry, HPSMTB buffer, profiling panel (AID 1324);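 also: glutathione beads loaded with GST-green fluorescent protein and no fluorescent Bim peptide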
# Settings: multiplex bead flow cytometry, MCF
row,Structure (SMILES),EC50
1,Cc1cccc(/C=N/N(CCO)C2=NS(=O)(=O)c3ccccc32)c1,inactive

# Same assay, conditions: multiplex bead flow cytometry, MCF, concentration not given here
row,Structure (SMILES),percent span inhibition
1,Cc1cc(C)c2c(N)c3cccc(C)c3nc2n1,inactive
2,O=C(COCC(=O)NCc1ccccc1)NCc1ccccc1,inactive
3,CCOCCOc1nc2c(c(=O)n(C)c(=O)n2C)n1CCc1ccccc1,inactive
4,CCc1cccc(CC)c1-n1c(-c2cccnc2)n[nH]c1=S,inactive
5,Cc1nc2ccccc2n1CSc1ccccc1,inactive
6,COc1cccc(/C=N/Nc2nn3cnnc3c3ccccc23)c1O,inactive
7,O=c1[nH]c(SCc2nc3ccccc3c(=O)n2-c2ccccc2C(F)(F)F)nc2ccccc12,inactive
8,COc1cc(/C=C2\S/C(=N/S(=O)(=O)c3ccc(C)cc3)NC2=O)c([N+](=O)[O-])cc1OC,inactive
9,O=C1C(=O)c2ccc(-c3ccccc3)cc2-c2ccccc21,inactive
10,CCOC(=O)c1sc(NC(=O)c2ccncc2)c(C#N)c1C,inactive
11,O=C(c1ccc(CNS(=O)(=O)c2ccc(Br)cc2)cc1)N1CCCC1,inactive
12,Cc1[nH]c2ccccc2c1C(=O)COC(=O)c1c(-c2c(F)cccc2Cl)noc1C,inactive
13,CC1(C)CC(=O)C(C=NCCN2CCN(CCc3ccccc3)CC2)=C(O)C1,inactive
14,Cc1ccc(CNc2ccc3c(c2)OCO3)c(C)c1,inactive
15,CCNC(=O)N1c2ccc(OCC)cc2C(C)=CC1(C)C,inactive
16,O=C(N/N=C/c1ccc(-c2ccccc2[N+](=O)[O-])o1)c1cncc(Br)c1,inactive
17,COC(=O)/C(=C/c1ccc(F)cc1)NC(C)=O,inactive
18,CC(=O)OCCNc1cc(Sc2nc3ccccc3[nH]2)c2nonc2c1[N+](=O)[O-],inactive
19,CCOC(=O)CSc1nnc(-c2cccc(Cl)c2)n1CC,inactive
20,O=C(Nc1nnc(SCc2ccccn2)s1)C1CC(=O)N(c2ccccc2)C1 (stereo unspecified),inactive

row,Structure (SMILES),percent span inhibition
1,CC(C)CCN1CCN(Cc2cccc3cccnc23)CC1CCO (stereo unspecified),inactive
2,O=C(CSc1ccc2nnc(-c3ccccn3)n2n1)Nc1nccs1,inactive
3,O=C1CSc2ccc(C(=O)Nc3cccc(S(=O)(=O)Nc4ccc(Br)cc4)c3)cc2N1,inactive
4,C#CCn1cc(C=C2C(=O)c3ccccc3C2=O)c2ccccc21,inactive
5,CCOc1ccc(C2=Nn3c(nnc3-c3ccco3)SC2)cc1,inactive
6,CCOc1ccc2nc(SCC(=O)N3c4ccccc4Sc4ccccc43)c(C#N)cc2c1,inactive
7,Cc1ccc(OCc2cn3cccnc3n2)cc1,inactive
8,CNC(=S)N/N=C/C1=CCC2CC1C2(C)C (stereo unspecified),inactive
9,Fc1ccc(Cn2nnnc2C(c2ccc(Cl)cc2)N2CCSCC2)cc1 (stereo unspecified),inactive
10,Nc1cccc(-c2cn3cccnc3n2)c1,inactive
11,CC(/C=C/C(=O)c1ccc(C)cc1)=C\c1ccccc1,inactive
12,c1ccc(-c2nc(N3CCOCC3)s[n+]2-c2ccccc2)cc1,inactive
13,Nc1ccc(N2CCN(CCCCN3C(=O)C4CCCN4C3=O)CC2)cc1 (stereo unspecified),inactive
14,Cc1onc(-c2ccccc2)c1C(=O)Nc1nnc(COc2ccc(Cl)cc2)s1,inactive
15,N#C/C(=C(/O)CN1CCN(c2ccccc2F)CC1)c1nc(-c2ccccc2)cs1,inactive
16,O=C(/C=C/c1ccc(-c2ccccc2[N+](=O)[O-])o1)c1ccccc1,inactive
17,O=C(Nc1ccccc1N1CCOCC1)c1cccs1,inactive
18,COC(=O)c1cccc(-n2c(C)cc(C=O)c2C)c1,inactive
19,COc1ccc(NC(=O)c2sccc2SCc2cccc(C(F)(F)F)c2)cc1,inactive
20,CCCc1nnc2n1N=C(c1ccc(-c3cc(Cl)ccc3Cl)o1)CS2,inactive
